Assay results as given in patent publication US20230234948A1, “CYCLOPROPYL DIHYDROQUINOLINE SULFONAMIDE COMPOUNDS” (AMGEN INC., priority 2020, published 2023).

Key:
[1] = biological target: T1, Human NaV1.7 (Homo sapiens, UniProt Q15858); assay: Ionworks Barracuda (IWB) automated patch clamp assay; format: cell-based; details: human NaV1.7 in HEK cells, population patch-clamp, state- and use-dependent voltage protocol; read-out: hNaV1.7 IWB-U IC50
T1 construct: expressed in transfected cells; host or cells: Spiking HEK cells (without Kir2.1 transfection)
T1 sequence (Q15858 whole entry): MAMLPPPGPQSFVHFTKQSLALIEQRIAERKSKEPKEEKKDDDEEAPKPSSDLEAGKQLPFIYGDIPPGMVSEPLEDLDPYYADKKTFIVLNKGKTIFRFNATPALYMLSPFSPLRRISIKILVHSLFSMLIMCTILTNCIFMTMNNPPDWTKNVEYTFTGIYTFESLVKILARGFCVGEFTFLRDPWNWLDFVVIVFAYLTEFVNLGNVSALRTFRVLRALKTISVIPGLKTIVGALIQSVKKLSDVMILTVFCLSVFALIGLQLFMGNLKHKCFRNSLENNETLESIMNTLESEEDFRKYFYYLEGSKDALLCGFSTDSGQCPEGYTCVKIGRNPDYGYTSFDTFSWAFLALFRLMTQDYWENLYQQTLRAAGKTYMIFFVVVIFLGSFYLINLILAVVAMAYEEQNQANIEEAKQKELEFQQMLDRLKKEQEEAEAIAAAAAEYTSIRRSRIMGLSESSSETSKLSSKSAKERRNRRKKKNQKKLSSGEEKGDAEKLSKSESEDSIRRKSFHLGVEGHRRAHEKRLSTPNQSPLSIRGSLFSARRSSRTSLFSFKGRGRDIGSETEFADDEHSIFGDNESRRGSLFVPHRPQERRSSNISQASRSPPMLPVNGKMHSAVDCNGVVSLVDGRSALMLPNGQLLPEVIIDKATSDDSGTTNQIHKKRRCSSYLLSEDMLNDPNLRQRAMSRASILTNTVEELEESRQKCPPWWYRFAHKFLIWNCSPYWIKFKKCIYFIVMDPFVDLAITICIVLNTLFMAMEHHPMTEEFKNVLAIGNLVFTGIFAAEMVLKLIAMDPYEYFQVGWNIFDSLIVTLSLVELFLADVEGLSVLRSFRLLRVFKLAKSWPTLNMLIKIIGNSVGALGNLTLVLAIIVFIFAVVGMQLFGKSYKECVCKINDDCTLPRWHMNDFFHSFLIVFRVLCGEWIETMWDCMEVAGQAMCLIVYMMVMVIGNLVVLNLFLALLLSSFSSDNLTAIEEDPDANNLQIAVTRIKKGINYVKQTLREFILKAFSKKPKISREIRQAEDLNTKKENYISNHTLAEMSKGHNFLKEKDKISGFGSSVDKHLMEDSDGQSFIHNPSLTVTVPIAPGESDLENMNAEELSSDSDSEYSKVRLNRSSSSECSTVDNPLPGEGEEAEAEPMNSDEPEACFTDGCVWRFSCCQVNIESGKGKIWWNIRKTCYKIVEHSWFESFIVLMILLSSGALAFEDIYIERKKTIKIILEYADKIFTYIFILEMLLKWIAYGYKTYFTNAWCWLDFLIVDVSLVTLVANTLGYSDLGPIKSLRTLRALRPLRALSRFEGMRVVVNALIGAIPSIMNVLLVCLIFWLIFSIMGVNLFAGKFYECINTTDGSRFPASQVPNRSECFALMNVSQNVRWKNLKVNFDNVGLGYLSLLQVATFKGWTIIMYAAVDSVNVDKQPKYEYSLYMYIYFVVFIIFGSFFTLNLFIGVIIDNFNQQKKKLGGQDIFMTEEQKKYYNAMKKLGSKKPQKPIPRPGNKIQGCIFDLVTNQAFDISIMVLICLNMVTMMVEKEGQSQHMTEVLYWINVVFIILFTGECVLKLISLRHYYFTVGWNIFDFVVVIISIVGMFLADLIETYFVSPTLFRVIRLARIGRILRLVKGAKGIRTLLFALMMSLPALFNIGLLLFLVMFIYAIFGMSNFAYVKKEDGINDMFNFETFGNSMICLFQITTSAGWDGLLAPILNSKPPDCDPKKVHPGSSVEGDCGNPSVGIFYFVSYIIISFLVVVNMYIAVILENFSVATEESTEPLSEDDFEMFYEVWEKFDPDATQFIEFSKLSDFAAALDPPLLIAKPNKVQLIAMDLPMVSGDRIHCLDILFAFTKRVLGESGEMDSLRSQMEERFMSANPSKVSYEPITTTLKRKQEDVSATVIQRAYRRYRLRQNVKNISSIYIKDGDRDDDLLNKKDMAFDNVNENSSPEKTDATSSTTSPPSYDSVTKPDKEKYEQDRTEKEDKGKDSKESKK
Protocol: Ionworks Barracuda (IWB) Automated Patch Clamp Assay (Same Protocol for Both Human and Mouse)
Human NaV1.7 currents were recorded in population patch-clamp mode with the IWB automated electrophysiology system (Molecular Devices, LLC, Sunnyvale, Calif.). Spiking HEK cells (without Kir2.1 transfection) were cultured and prepared for recordings as previously described for IonWorks Quattro testing^1. The external solution consisted of the following (in mM): NaCl 140, KCl 5, CaCl2 2, MgCl2 1, HEPES 10, and glucose 11, pH 7.4, with N-methyl-D-glucamine at 320 mOsmol. […] From a holding potential of −110 mV, currents were elicited by a train of 26 depolarizations of 150 ms duration to −20 mV at a frequency of 5 Hz. Cells were then clamped to −20 mV for a period of 4 minutes in the presence of a single concentration of test compound. Following this compound incubation period, cells were clamped to −110 mV for three seconds to recover unbound channels and put through the same 26 pulse voltage protocol as above. Peak inward current during the 26th pulse to −20 mV in the presence of compound was divided by the peak inward current evoked by the 26th pulse to −20 mV in the absence of compound to determine percent inhibition. Concentration-response curves of percent inhibition as a function of concentration were generated to calculate IC50 values as described in Kornecook, T. J.; Yin, R.; Altmann, S.; et al. Pharmacologic Characterization of AMG8379, a Potent and Selective Small Molecule Sulfonamide Antagonist of the Voltage-Gated Sodium Channel NaV1. 7.
The potency of the compounds of the present invention were evaluated on human NaV1.7 channels using the above described IonWorks Barracuda automated electrophysiology platform that evaluates the ability of compounds to block sodium conductance through NaV1.7 channels. A voltage-protocol that prosecutes both state-dependent as well as use-dependent inhibition was used as these modes of action are thought to be more relevant for the native state of NaV1.7 channels in pain sensing neurons in vivo.

[2] = system: CYP3A4; assay: Human CYP 3A4 induction assay (mRNA, cryopreserved human hepatocytes); format: in vitro ADME; details: 10 uM test compound, 72 hours, percent of control (rifampin positive control)
Protocol: Human CYP 3A4 Induction Assay
Cryopreserved human hepatocytes were seeded in 96-well collagen coated plates at 70,000 cells per well in hepatocyte plating media (HPM, final concentrations: 1× Dulbecco's Modified Eagle's Medium, 0.1 μM dexamethasone, 10% fetal bovine serum, 1×ITS, 1×PSG) followed by incubation at 37° C. under 5% CO2 and 90% relative humidity for 2 days to allow hepatocytes to form a confluent layer. On Day 3, hepatocytes were treated with either test compound or rifampin (20 μM, positive control for CYP3A induction) prepared in hepatocyte incubation media ((HIM, final concentrations: 1× William's Medium E, 0.1 μM dexamethasone, 1×ITS, 1×PSG). Treatment was performed for 72 hours with either 2 concentrations (2 μM or 10 μM) or a range of concentrations (0.001 μM to 100 μM) of the test compound to obtain full dose-response curve. Fresh media containing the relevant concentrations of the test compound was replaced every day until the samples were processed. After 72 hours of incubation, samples were processed for mRNA analysis using bDNA technology using manufacturer's instructions (Affymetrix, Fremont, Calif.). Cell viability was tested at the end of the experiment using MTT assay kit (Roche Diagnostics, Basel, Switzerland). Data was analyzed and presented as percent of control (POC) and Emax and EC50 obtained when appropriate according to guidance from Center for Drug Evaluation and Research (CDER), 2006, Guidance for Industry, Drug Interaction Studies—Study Design, Data Analysis, and Implications for Dosing and Labeling.
Cryopreserved human hepatocytes were seeded in 96-well collagen coated plates at 70,000 cells per well in hepatocyte plating media (HPM, final concentrations: 1× Dulbecco's Modified Eagle's Medium, 0.1 μM dexamethasone, 10% fetal bovine serum, 1×ITS, 1×PSG) followed by incubation at 37° C. under 5% CO2 and 90% relative humidity for 2 days to allow hepatocytes to form a confluent layer. On Day 3, hepatocytes were treated with either test compound or rifampin (20 μM, positive control for CYP3A induction) prepared in hepatocyte incubation media ((HIM, final concentrations: 1× William's Medium E, 0.1 μM dexamethasone, 1×ITS, 1×PSG). Treatment was performed for 72 hours with either 2 concentrations (2 μM or 10 μM) or a range of concentrations (0.001 μM to 100 μM) of the test compound to obtain full dose-response curve. Fresh media containing the relevant concentrations of the test compound was replaced every day until the samples were processed. After 72 hours of incubation, samples were processed for mRNA analysis using bDNA technology using manufacturer's instructions (Affymetrix, Fremont, Calif.). Cell viability was tested at the end of the experiment using MTT assay kit (Roche Diagnostics, Basel, Switzerland). Data was analyzed and presented as percent of control (POC) and Emax and EC50 obtained when appropriate, as described in Halladay, J. et al, 2012, An “all-inclusive” 96-well cytochrome P450 induction method: Measuring enzyme activity, mRNA levels, protein levels, and cytotoxicity from one well using cryopreserved human hepatocytes, Pharmacological and Toxicological Methods, 66:270-275.
The cytochrome P450 (CYP) is a well-known superfamily of enzymes that are responsible for the oxidative and reductive metabolic transformation of medications used in clinical practice. In addition, the CYP enzymes are commonly associated with causing many clinically relevant drug-drug interactions. […]

Compound | IC50 [1] [nM] | CYP3A4 mRNA Induct Hu 10 uM POC [2] [%]
COc1cc([C@H]2C[C@@H]2C(F)(F)F)ccc1-n1c(=O)ccc2cc(S(=O)(=O)Nc3ccon3)ccc21 (single isomer, unassigned) [Example 39] | 8 | 38.35
COc1cc([C@@H]2C[C@H]2C(F)(F)F)ccc1-n1c(=O)ccc2cc(S(=O)(=O)Nc3ccon3)ccc21 (single isomer, unassigned) [Example 38] | 10 | 29.06
(P)-1-(5-fluoro-2-methoxy-4-((1S,2S)-2-((trifluoromethoxy)methyl)cyclopropyl)phenyl)-N-(isoxazol-3-yl)-2-oxo-1,2-dihydroquinoline-6-sulfonamide [Example 33] | 4 | 139.9
